Data published in patent publication US7435551B2, “Method for diagnosing type II diabetes or monitoring therapeutic effects of therapeutic agents for type II diabetes” (Fujirebio, Inc., priority 2001, dated 2008).

Assays:
Format in all cases: in vivo, human
adiponectin (GBP28) = test: Serum GBP28 (adiponectin) by ELISA before and after three-month pioglitazone
Method: The patients who had been employed in Example 1 were also subjected to an assay of the blood concentration of GBP28 before and after the three-month administration of pioglitazone.
The anti-human GBP28 monoclonal antibody was prepared in the following manner. First, a solution of GBP28 (about 50 μg) isolated and purified from human serum was micellized with a complete adjuvant, and the resultant was administered to a mouse intraperitoneally. Two weeks later, the mouse was subjected to booster, the spleen was extirpated 3 days thereafter, and the B-cell was collected. The B-cell and the myeloma cell were allowed to fuse with each other to prepare hybridomas, and a hybridoma of interest was administered to a mouse intraperitoneally. Thereafter (20 days later), ascites was processed with DEAE-Sepharose Fast Flow, and the monoclonal antibody of interest was obtained.
GBP28 was assayed by ELISA in the following manner. A standard GBP28 sample, a 441-fold-diluted unknown sample, and a control sample (100 μl each) were added to a 96-well microtiter plate coated with the mouse anti-GBP28 monoclonal antibody. The plate was incubated for 60 minutes, the well was washed, and incubation was carried out for additional 30 minutes with the horseradish peroxidase-labeled mouse anti-GBP28 monoclonal antibody. The plate was washed again, and incubation was carried out for 30 minutes with a tetramethylbenzidine reagent. Subsequently, 100 μl of aqueous solution of 0.36N sulfuric acid was added to each well to terminate the reaction, and the absorbance at 450 nm was assayed. Intra- and interassay coefficients were 4.8% to 4.9% and 3.3% to 6.8%, respectively.

[1] = Assessment of body fat distribution by CT scan before and after three-month pioglitazone; conditions: type II diabetes patients n=10, 30 mg/day orally, mean ± S.D.
Method: The patients who had been also employed in Example 1 were subjected to the assessment of body fat distribution before and after the three-month administration of pioglitazone. Distributions of subcutaneous fat and visceral fat were determined by assessing the region of a Hounsfield unit of −150 to −50 by a method modified from the computerized tomography (CT) scan at the level of the navel by Tokunaga et al. (Tokunaga, K. et al., Int. J. Obes. 7: 437-445, 1983). CT images at the baseline and after a three-month treatment were taken in accordance with the same protocols that had been previously reported by the present inventors (Kawai, T. et al., Metabolism, 48: 1102-1107, 1999). The V/S ratio was calculated by dividing the visceral fat area (VFA) by the subcutaneous fat area (SFA).

[2] = Three-month pioglitazone administration to type II diabetes patients: serum insulin (EIA) and HOMA-IR
Text: (§1) 10 male patients with type II diabetes (ages: 40 to 66, 57.7±7.4) either being only under diet therapy (n=7) or being under diet therapy and on medication of sulfonylurea (n=3) were subjected to inspection regarding the following parameters before and after a three-month administration of a thiazolidine derivative, pioglitazone. Body weights, blood glucose levels, and blood pressure levels of those patients and treatments for them were at constant levels for at least 3 months before the examination. The sulfonylurea doses for 3 patients were at constant levels during that period. Pioglitazone was administered to all 10 patients after breakfast every day (orally, 30 mg/day).
(§2) The systolic blood pressure (SBP) and the diastolic blood pressure (DBP) were measured twice in a sitting position after an at least 5-minute recess. Body heights, weights, and levels of fasting plasma glucose (FPG), HbA1C, serum insulin, adiponectin, total cholesterol (TC), triglyceride (TG), HDL-cholesterol, LDL-cholesterol, and uric acid were measured in the morning after an overnight fast. Levels of plasma glucose, lipids, and uric acid were measured by a common automated measuring technique. The serum concentration of insulin was measured using a commercially available kit, EIA (Tosoh, Tokyo), as already described (Kawai, T. et al., Metabolism 48: 1102-1107, 1999; Hirose, H. et al., Clin. Sci. (Colch) 94: 633-636, 1998; Hirose, H. et al., J. Hypertens. 16: 2007-2012, 1998; Hirose, H. et al., Clin. Sci. (Colch) 100: 145-150, 2001). The insulin resistance index was evaluated by the Homeostasis model assessment (HOMA-IR) (Matthews, D. R. et al., Diabetologia 28: 412-419, 1985; Rudenski, A. S. et al., Metabolism 40: 908-917, 1991).

[3] = Three-month pioglitazone administration to type II diabetes patients: body mass index and blood pressure; conditions: type II diabetes patients n=10, 30 mg/day orally, mean ± S.D.
Text: as §1, §2

[4] = Three-month pioglitazone administration to type II diabetes patients: fasting glucose, HbA1c, lipids, uric acid
Text: as §1, §2

[5] = type II diabetes patients n=10, 30 mg/day orally, logarithmic values, mean ± S.D.
[6] = type II diabetes patients n=10, 30 mg/day orally, 3 months, mean ± S.D.
[7] = type II diabetes patients, three-month administration, given without sign
[8] = type II diabetes patients n=10, 30 mg/day orally, mean ± S.D.

CCc1ccc(CCOc2ccc(CC3SC(=O)NC3=O)cc2)nc1 (stereo not drawn) [pioglitazone]
Elevation in serum adiponectin level, times higher than the baselines on average (adiponectin (GBP28); 10 type II diabetes patients, three-month administration): 3 times
GBP28 (log), after the three-month trace (adiponectin (GBP28); type II diabetes patients n=10, 30 mg/day orally, 3 months, serum, mean ± S.D.): 14.4 ± 2.1 μg/l
GBP28 (log), rate of change in 3 months (adiponectin (GBP28); [5]): 80.9 ± 58^
Rate of change of concentration of GBP28 over three months (adiponectin (GBP28); type II diabetes patients, three-month administration): 80.9%
Subcutaneous Fat Area, after the three-month trace ([1]; 3 months, CT at navel level): 179 ± 81 cm^2
Visceral Fat Area, after the three-month trace ([1]; 3 months, CT at navel level): 180 ± 46 cm^2
V/S ratio, after the three-month trace ([1]; 3 months, VFA divided by SFA): 1.1 ± 0.3
Subcutaneous Fat Area, rate of changes in 3 months [1]: 16.1 ± 18.7
V/S ratio, rate of changes in 3 months [1]: −4.0 ± 11.2
Visceral Fat Area, rate of changes in 3 months [1]: 11.3 ± 21.3
HOMA-IR (log), after the three-month trace [2, 6]: 1.6 ± 1.3^
Serum insulin (log), after the three-month trace [2, 6]: 30 ± 8 pmmol/l
HOMA-IR (log), rate of change in 3 months [2, 5]: −62.6 ± 22.6
Serum insulin (log), rate of change in 3 months [2, 5]: −23.7 ± 13.5
Rate of change of HOMA-IR over three months [2, 7]: 62.6%
Rate of change of serum insulin over three months [2, 7]: 23.7%
Body Mass Index, after the three-month trace ([3]; 3 months): 27.0 ± 3.5 kg/m^2
Body Mass Index, rate of change in 3 months [3]: 2.1 ± 2.2
Body mass index at diastolic blood pressure, rate of change in 3 months [3]: −6.3 ± 6.9
Body mass index at systolic blood pressure, rate of change in 3 months [3]: −7.0 ± 4.9
Fasting blood glucose, after the three-month trace [4, 6]: 7.0 ± 1.0^ mmol/l
HDL cholesterol, after the three-month trace [4, 6]: 52.1 ± 7.3 mg/dL
HbA1c, after the three-month trace [4, 6]: 6.1 ± 0.6^ %
LDL cholesterol, after the three-month trace [4, 6]: 138 ± 24 mg/dL
Total cholesterol, after the three-month trace [4, 6]: 218 ± 35 mg/dL
Triglyceride (log), after the three-month trace [4, 6]: 127 ± 2 mg/dl
Uric acid, after the three-month trace [4, 6]: 5.6 ± 1.3^ mg/dl
Triglyceride (log), rate of change in 3 months [4, 5]: −1.0 ± 6.3
Fasting blood glucose, rate of change in 3 months [4, 8]: −18.2 ± 9.3
HDL cholesterol, rate of change in 3 months [4, 8]: 2.0 ± 11.2
HbA1c, rate of change in 3 months [4, 8]: −9.0 ± 8.8
LDL cholesterol, rate of change in 3 months [4, 8]: 12.3 ± 12.8
Total cholesterol, rate of change in 3 months [4, 8]: 4.8 ± 10.9
Uric acid, rate of change in 3 months [4, 8]: −5.0 ± 9.5
Rate of change of HbA1C over three months [4, 7]: 9.0%
Rate of change of blood glucose over three months [4, 7]: 18.2%
